Source: patent publication US8507529B2, “Methods of using a nitroxide antioxidant in cosmetic and dermatological compositions” (Jarrow Formulas, Inc., priority 2005, dated 2013)

Assays:
[1] = Absorption spectra of 50 μM compounds in acetonitrile; type: physicochemical; details: 50 μM in acetonitrile, FIG. 2
Protocol: FIG. 2. Absorption spectra of 50 μM compounds in acetonitrile.

[2] = Peroxidation of multilamellar phosphatidylcholine (PC) liposomes induced by UVA, TBA assay (TBARS); details: 3.5 mM PC liposomes, 275 kJ/m^2 UVA; for level of UVA-induced lipid peroxidation (TBARS absorbance): 100 μM compounds alone or combined, FIG. 4
[3] = Optical absorption spectra before and after UVA exposure (photostability); type: physicochemical; details: 100 μM in phosphate buffer pH 7.4, 275 kJ/m^2 UVA, ethyl acetate extraction, FIG. 3
Protocol: FIG. 3. […] See Detailed Description for experimental details.
The reason for using buffer was to maintain the same medium as the peroxidation experiments so that comparisons between the optical absorption experiments and lipid peroxidation could be meaningful.
10 mM Stock solutions of TEMPOL and the photoactive ingredients were prepared in acetonitrile. […] The solutions were then transferred to a 24 multi-well plate for cell cultures (Orange Scientific, Cambrex BioScience, Walkerville, Inc.) which was placed on a brass block embedded on ice at a distance of 20 cm from the light source. […] After illumination, 2.4 ml of sample were collected from each well and extracted with the same volume of ethyl acetate. The organic phase was separated and its absorption spectrum was then run on a UV Kontron 941 spectrophotometer. For the non-illuminated samples, the same procedure was followed for the same length of time except that the samples were exposed to direct artificial laboratory working light.

human dermal fibroblasts = details: cited from earlier work
[4] = tested on: transgenic murine fibroblast culture; details: transgenic murine fibroblast culture model of cutaneous photoaging; cited from earlier work

Compound | level of UVA-induced lipid peroxidation (TBARS absorbance) [2] | change in spectral absorption after UVA exposure [3] | further results
2,2,6,6-tetramethyl-piperidin-4-yl-p-methoxy cinnamyloxy-1-oxyl [MC-NO] | greatly reduced to almost control levels | retains the majority of its original absorbance | spectral profile and extinction coefficient [1]: same spectral profile and extinction coefficient as OMC
CCCCC(CC)COC(=O)C=Cc1ccc(OC)cc1 (centres unmarked) [OMC, 2-ethylhexyl-4-methoxycinnamate] | seems to protect | strong decrease in spectral absorption | 
COc1ccc(C(=O)CC(=O)c2ccc(C(C)(C)C)cc2)cc1 [Parsol 1789, 4-tert-butyl-4′-methoxydibenzoylmethane] |  |  | level of UVA-induced lipid peroxidation (TBARS absorbance) with Parsol 1789 ([2]; 100 μM Parsol 1789 alone or combined with 100 μM compound, FIG. 5): significant increase
CC1(C)CC(O)CC(C)(C)N1[O] [TEMPOL, 4-hydroxy-2,2,6,6,-tetramethyl-piperidine-1-oxyl] |  |  | protection against UV radiation (human dermal fibroblasts): affords protection against UV radiation; protection against UV radiation [4]: affords protection against UV radiation
